Measurements as given in PubChem BioAssay (NCI).
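Briefly, cells in 96-well plates were exposed to five compound concentrations for 48 h, and endpoints were estimated by linear interpolation. GI50 = concentration required for 50% inhibition of growth. TGI: concentration producing complete growth inhibition.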

Legend:
Assay in all cases: NCI anticancer screen, dose series, 48 h
CCRF-CEM leukemia = test system: CCRF-CEM leukemia
DU-145 prostate = test system: DU-145 prostate
HCT-15 colon = test system: HCT-15 colon
HOP-62 NSCLC = test system: HOP-62 NSCLC
NCI-H226 lung = test system: NCI-H226 lung
RPMI-8226 leukemia = test system: RPMI-8226 leukemia
RXF 393 renal = test system: RXF 393 renal
SF-268 CNS = test system: SF-268 CNS
SF-295 CNS = test system: SF-295 CNS
SN12C renal = test system: SN12C renal

Structure (SMILES)	GI50 (CCRF-CEM leukemia)	TGI (CCRF-CEM leukemia)	GI50 (DU-145 prostate)	TGI (DU-145 prostate)	GI50 (HCT-15 colon)	TGI (HCT-15 colon)	GI50 (HOP-62 NSCLC)	TGI (HOP-62 NSCLC)	GI50 (NCI-H226 lung)	TGI (NCI-H226 lung)	GI50 (RPMI-8226 leukemia)	TGI (RPMI-8226 leukemia)	GI50 (RXF 393 renal)	TGI (RXF 393 renal)	GI50 (SF-268 CNS)	TGI (SF-268 CNS)	GI50 (SF-295 CNS)	TGI (SF-295 CNS)	GI50 (SN12C renal)	TGI (SN12C renal)
C=CC(=O)N1C[C@@H]2CCOc3c(Cl)c(-c4c(O)cccc4F)c(F)c4ncnc(c34)N2C[C@H]1C	11.5 µM	> 100 µM	10.5 µM	22.3 µM	11.8 µM	26.6 µM	0.0507 µM	25.5 µM	13.1 µM	45.2 µM	5.96 µM	> 100 µM	2.15 µM	15.1 µM	12.5 µM	29.1 µM	15.6 µM	32.5 µM	13 µM	31.3 µM
CC1=C(C)C(=O)O[C@@H]([C@](C)(O)[C@]2(O)CC[C@@]3(O)[C@@H]4C[C@H](O)[C@]5(O)[C@@H](O)C=CC(=O)[C@]5(C)[C@H]4CC[C@]23C)C1	–	89.5 µM	–	> 100 µM	–	> 100 µM	–	> 100 µM	–	> 100 µM	–	> 100 µM	–	> 100 µM	–	> 100 µM	–	> 100 µM	–	> 100 µM
C#Cc1cccc(Nc2ncnc3ccc(OCCCCNCCS(C)(=O)=O)cc23)c1	7.65 µM	> 25 µM	4.34 µM	> 25 µM	7.41 µM	> 25 µM	11.5 µM	> 25 µM	> 19.6 µM	> 25 µM	4.59 µM	15.3 µM	5.32 µM	> 22.6 µM	6.13 µM	> 23.7 µM	8.84 µM	> 25 µM	5.89 µM	> 25 µM
COc1cc(N2C(=O)[C@H](c3ccccc3)C2c2ccc(SC)cc2)cc(OC)c1OC (some centres not stated)	0.0377 µM	> 100 µM	0.0373 µM	> 100 µM	0.034 µM	> 100 µM	0.0788 µM	> 100 µM	0.0301 µM	> 100 µM	0.0416 µM	7.68 µM	0.038 µM	> 100 µM	0.0485 µM	> 100 µM	0.0352 µM	6.94 µM	0.05 µM	> 100 µM
O=C(NCCCl)Nc1cccnc1	–	> 100 µM	–	29.4 µM	–	66.7 µM	–	> 100 µM	–	30.5 µM	–	86.6 µM	–	> 100 µM	–	–	–	94.5 µM	–	64.7 µM
CC1(C)N=C(N)N=C(N)N1c1ccc(OCCCNC(=O)Nc2cccc(S(=O)(=O)F)c2)c(Cl)c1	3.62 µM	> 100 µM	2.87 µM	> 100 µM	29.2 µM	> 100 µM	6.04 µM	> 100 µM	8.37 µM	> 100 µM	41.4 µM	> 100 µM	22.2 µM	> 100 µM	0.596 µM	> 100 µM	5.8 µM	> 100 µM	–	–
Oc1c(Cl)cc(Cl)cc1/C=N/Nc1nnc(N/N=C/c2cc(Cl)cc(Cl)c2O)c2ccccc12	0.275 µM	–	0.715 µM	> 100 µM	0.334 µM	> 100 µM	0.388 µM	> 28.8 µM	0.402 µM	3.04 µM	0.405 µM	> 100 µM	0.278 µM	0.798 µM	0.407 µM	> 100 µM	–	–	0.543 µM	> 100 µM
C#CC(=O)Nc1cccc2c1cc(C)n2-c1nc2c(c(NCc3ccccc3)n1)CCCC2	0.0255 µM	0.0605 µM	1.18 µM	2.54 µM	0.167 µM	0.409 µM	–	–	0.25 µM	0.644 µM	–	–	0.152 µM	0.311 µM	0.199 µM	0.438 µM	0.207 µM	0.51 µM	0.0706 µM	0.427 µM
Cc1cc(N2CCCCC2)nc(NC2CCCC(Nc3ccnc4cc(Cl)ccc34)C2)n1 (configuration not stated)	1.48 µM	10.6 µM	1.45 µM	3.1 µM	0.825 µM	2.17 µM	1.46 µM	2.91 µM	1.99 µM	3.9 µM	0.472 µM	2.56 µM	1.12 µM	2.47 µM	–	–	1.52 µM	2.92 µM	–	–
O=C(O)c1cc(=O)cc(C(=O)O)o1	> 100 µM	> 100 µM	> 100 µM	> 100 µM	> 100 µM	> 100 µM	> 100 µM	> 100 µM	> 100 µM	> 100 µM	> 100 µM	> 100 µM	> 100 µM	> 100 µM	> 100 µM	> 100 µM	> 100 µM	> 100 µM	–	–
O=Nc1c(-c2c(O)[nH]c3cc(Br)ccc23)[nH]c2ccccc12	2.53 µM	> 100 µM	1.23 µM	2.56 µM	0.963 µM	3.1 µM	–	–	0.932 µM	3.49 µM	2.04 µM	> 22.5 µM	0.858 µM	3.42 µM	1.52 µM	3.66 µM	1.34 µM	5.57 µM	0.785 µM	3.86 µM
